Experimental data: patent US20020035061A1, “COMPOSITIONS AND METHODS FOR TREATING INFECTIONS USING CATIONIC PEPTIDES ALONE OR IN COMBINATION WITH ANTIBIOTICS” (priority 1996, published 2002)
Where “and” joins values, the source holds several entries; their conditions need not be identical. Equal entries are not always repeated.

Experiments:
P. vulgaris = assay: Agarose dilution assay (MIC); format: cell-based
Candida = assay: Agarose dilution assay (MIC) against Candida; format: cell-based
Liposome dye release = conditions: egg PC liposomes
Protocol: In this example, a dye pair consisting of the fluorescent molecule 8-aminonapthalene-1,3,6-trisulfonic acid (ANTS) and its quencher molecule p-xylene-bis-pyridinium bromide (DPX) are used. The mixture of free dye molecules, dye free liposomes, and liposomes containing encapsulated ANTS-DPX are separated by size exclusion chromatography. In the assay, the test peptide is incubated with the ANTS-DPX containing liposomes and the fluorescence due to ANTS release to the outside of the liposome is measured over time.
Using this assay, peptide activity, measured by dye release, is shown to be extremely sensitive to the composition of the liposomes at many liposome to peptide ratios (L/P) (FIG. 7). […] This […] selectivity may mimic that observed […] for bacterial cells in the presence of mammalian cells.
ANTS/DPX can be replaced with fluorescein isothiocyanate-labeled dextran (FD-4), molecular weight 4,400, in the egg PC liposomes.

[1] = test system: E. coli strain ML-35 inner membrane; format: cell-based
[2] = test system: S. epidermidis (ATCC # 12228); assay: In vivo efficacy, S. epidermidis infection; conditions: iv
[3] = test system: H460, non-small lung tumor; assay: Cell death by Cytotox (Promega) lactate dehydrogenase release; format: cell-based; conditions: LDH release
Protocol: (§1) In addition, APO-peptides and parent peptides are tested against a panel of cancer cell lines. Cell death is measured using the Cytotox (Promega) assay kit which measures the release of lactate dehydrogenase.
(§2) PBL, peripheral blood lymphocytes; HUVEC, human umbilical vein endothelial cells; H460,non-small lung tumor; K562, chronic myelogenous leukemia; DoHH-2, B-cell cell lymphoma; P388, lymphocytic leukemia; P388ADR, lymphocytic leukemia, multidrug resistant; MCF-7, breast carcinoma; MCF-7ADR, breast carcinoma, multidrug resistant.

[4] = test system: HUVEC, human umbilical vein endothelial cells; assay: as above; format: cell-based; conditions: LDH release
Protocol: as §1, §2

MCF-7, breast carcinoma = assay: as above; format: cell-based; conditions: LDH release
Protocol: as §1, §2

[5] = test system: MCF-7ADR, breast carcinoma, multidrug resistant; assay: as above; format: cell-based; conditions: LDH release
Protocol: as §1, §2

[6] = test system: P388, lymphocytic leukemia; assay: as above; format: cell-based; conditions: LDH release
Protocol: as §1, §2

[7] = test system: P388ADR, lymphocytic leukemia, multidrug resistant; assay: as above; format: cell-based; conditions: LDH release
Protocol: as §1, §2

[8] = test system: PBL, peripheral blood lymphocytes; assay: as above; format: cell-based; conditions: LDH release
Protocol: as §1, §2

S. pyogenes = assay: Agarose dilution assay (MIC); format: cell-based; conditions: S. pyogenes strain SPY006
[9] = test system: DoHH-2, B-cell cell lymphoma; assay: Cell death by Cytotox (Promega) lactate dehydrogenase release; format: cell-based; conditions: LDH release
Protocol: as §1, §2

[10] = test system: K562, chronic myelogenous leukemia; assay: as above; format: cell-based; conditions: LDH release
Protocol: as §1, §2

S. aureus = assay: microbe, parasite or virus in culture; format: cell-based
a bacterial strain = assay: Killing curves, combination of cationic peptide and antibiotic agent; format: cell-based; conditions: in combination with vancomycin, FIG. 3E
Protocol: As used herein, “synergy” refers to the in vitro effect of administration of a combination of a cationic peptide and antibiotic agent such that (I) the fractional inhibitory concentration (FIC) is less than or equal to 0.5 in an FIC assay described herein; or (2) there is at least a 100-fold (21og10) increase in killing at 24 hours for the combination as compared with the antibiotic agent alone in a time kill curve assay as described herein.
Time kill curves resulting from combination of cationic peptide and antibiotic agent are compared to that resulting from agent alone.
The assay is performed as described above except that duplicate tubes are set up for each concentration of the antibiotic agent alone and of the combination of antibiotic agent and cationic peptide.

tolerant organisms = assay: Overcoming tolerance: MBC and MIC by agarose dilution, antibiotic alone and with peptide; format: cell-based; conditions: combination of Vancomycin and peptide, organisms of Table 18

## ILKKFPFFPFRRK [MBI 11A1CN]
P. vulgaris; P. vulgaris SBPV1
  MIC: >128 µg/mL
P. vulgaris; agarose dilution, P. vulgaris ATCC 13315
  Peptide MIC values: >128 µg/mL

## ILKKWPWWPWRRK [MBI 11CN]
Candida; C. albicans CA001
  MIC: 128 µg/mL
Candida; C. albicans CA002
  MIC: 64 µg/mL
Candida; C. albicans CA003
  MIC: 128 µg/mL
Candida; C. albicans CA004
  MIC: 64 µg/mL
Candida; C. albicans CA005
  MIC: 128 µg/mL
Candida; C. albicans CA006
  MIC: 128 µg/mL
Candida; C. albicans CA007
  MIC: 128 µg/mL
Candida; C. albicans CA008
  MIC: 64 µg/mL
Candida; C. albicans CA009
  MIC: 64 µg/mL
Candida; C. albicans CA010
  MIC: 128 µg/mL
Candida; C. albicans CA011
  MIC: 64 µg/mL
Candida; C. albicans CA012
  MIC: 128 µg/mL
Candida; C. albicans CA013
  MIC: 128 µg/mL
Candida; C. albicans CA014
  MIC: 64 µg/mL
Candida; C. albicans CA015
  MIC: 128 µg/mL
Candida; C. albicans CA016
  MIC: 128 µg/mL
Candida; C. albicans CA017
  MIC: 128 µg/mL
Candida; C. albicans CA018
  MIC: 128 µg/mL
Candida; C. albicans CA019
  MIC: 128 µg/mL
Candida; C. albicans CA020
  MIC: 128 µg/mL
Candida; C. albicans CA021
  MIC: 128 µg/mL
Candida; C. albicans CA022
  MIC: 32 µg/mL
Candida; C. albicans CA023
  MIC: 128 µg/mL
Candida; C. albicans CA024
  MIC: 16 µg/mL
Candida; C. glabrata CGL001
  MIC: >128 µg/mL
Candida; C. glabrata CGL002
  MIC: >128 µg/mL
Candida; C. glabrata CGL003
  MIC: >128 µg/mL
Candida; C. glabrata CGL004
  MIC: >128 µg/mL
Candida; C. glabrata CGL005
  MIC: >128 µg/mL
Candida; C. glabrata CGL009
  MIC: >128 µg/mL
Candida; C. glabrata CGL010
  MIC: >128 µg/mL
Candida; C. krusei CKR001
  MIC: 0.5 µg/mL
Candida; C. tropicalis CTR001
  MIC: 4 µg/mL
Candida; C. tropicalis CTR002
  MIC: 4 µg/mL
Candida; C. tropicalis CTR003
  MIC: 8 µg/mL
Candida; C. tropicalis CTR004
  MIC: 4 µg/mL
Candida; C. tropicalis CTR005
  MIC: 4 µg/mL
Candida; C. tropicalis CTR006
  MIC: 16 µg/mL
Candida; C. tropicalis CTR007
  MIC: 16 µg/mL
Candida; C. tropicalis CTR008
  MIC: 8 µg/mL
Candida; C. tropicalis CTR009
  MIC: 8 µg/mL
Liposome dye release
  FD-4 (MW 4,400) release: No increase in FD-4 fluorescence
[1]; cells pre-incubated with valinomycin
  ONPG hydrolysis diminished compared to no pre-incubation: approximately 50%
[2]; 30 minutes post-infection
  efficacy: less activity
[2]; 60 minutes post-infection
  efficacy: no significant effect
[2]; formulation D
  survival of the mice: prolongs the survival of the mice
[2]; treatment 15 minutes post-infection
  efficacy: Efficacy is observed at all three dose levels
[3]
  LC50 ± S.E., H460: 200 µg/mL
[4]
  LC50 ± S.E., HUVEC: >190 µg/mL
MCF-7, breast carcinoma
  LC50 ± S.E., MCF-7: 11.8 ± 9 µg/mL
[5]
  LC50 ± S.E., MCF-7 ADR: 17 ± 1 µg/mL
[6]
  LC50 ± S.E., P388: 30 µg/mL
[7]
  LC50 ± S.E., P388 ADR: 25 µg/mL
[8]
  LC50 ± S.E., PBL: 57 µg/mL

## ILRWPWWPWRRK [MBI 11B7CN]
S. pyogenes
  MIC: 16 µg/mL
Candida; C. albicans CA001
  MIC: 64 µg/mL
Candida; C. albicans CA002
  MIC: 32 µg/mL
Candida; C. albicans CA003
  MIC: 64 µg/mL
Candida; C. albicans CA004
  MIC: 32 µg/mL
Candida; C. albicans CA005
  MIC: 32 µg/mL
Candida; C. albicans CA006
  MIC: 64 µg/mL
Candida; C. albicans CA007
  MIC: 64 µg/mL
Candida; C. albicans CA008
  MIC: 32 µg/mL
Candida; C. albicans CA009
  MIC: 32 µg/mL
Candida; C. albicans CA010
  MIC: 64 µg/mL
Candida; C. albicans CA011
  MIC: 64 µg/mL
Candida; C. albicans CA012
  MIC: 64 µg/mL
Candida; C. albicans CA013
  MIC: 64 µg/mL
Candida; C. albicans CA014
  MIC: 32 µg/mL
Candida; C. albicans CA015
  MIC: 64 µg/mL
Candida; C. albicans CA016
  MIC: 64 µg/mL
Candida; C. albicans CA017
  MIC: 64 µg/mL
Candida; C. albicans CA018
  MIC: 64 µg/mL
Candida; C. albicans CA019
  MIC: 64 µg/mL
Candida; C. albicans CA020
  MIC: 32 µg/mL
Candida; C. albicans CA021
  MIC: 32 µg/mL
Candida; C. albicans CA022
  MIC: 32 µg/mL
Candida; C. albicans CA023
  MIC: 64 µg/mL
Candida; C. albicans CA024
  MIC: 8 µg/mL
Candida; C. glabrata CGL001
  MIC: 128 µg/mL
Candida; C. glabrata CGL002
  MIC: 128 µg/mL
Candida; C. glabrata CGL003
  MIC: 128 µg/mL
Candida; C. glabrata CGL004
  MIC: 128 µg/mL
Candida; C. glabrata CGL005
  MIC: 128 µg/mL
Candida; C. glabrata CGL009
  MIC: 128 µg/mL
Candida; C. glabrata CGL010
  MIC: 128 µg/mL
Candida; C. krusei CKR001
  MIC: 1 µg/mL
Candida; C. tropicalis CTR001
  MIC: 4 µg/mL
Candida; C. tropicalis CTR002
  MIC: 8 µg/mL
Candida; C. tropicalis CTR003
  MIC: 8 µg/mL
Candida; C. tropicalis CTR004
  MIC: 8 µg/mL
Candida; C. tropicalis CTR005
  MIC: 4 µg/mL
Candida; C. tropicalis CTR006
  MIC: 8 µg/mL
Candida; C. tropicalis CTR007
  MIC: 8 µg/mL
Candida; C. tropicalis CTR008
  MIC: 4 µg/mL
Candida; C. tropicalis CTR009
  MIC: 4 µg/mL
[1]
  time of maximum activity in growth cycle: 140 min and 230 min
[9]
  LC50 ± S.E., DoHH-2: 16.5 ± 3 µg/mL
[3]
  LC50 ± S.E., H460: 26 ± 25 µg/mL
[4]
  LC50 ± S.E., HUVEC: 90 ± 23 µg/mL
[10]
  LC50 ± S.E., K562: 34 ± 25 µg/mL
MCF-7, breast carcinoma
  LC50 ± S.E., MCF-7: >700 µg/mL
[6]
  LC50 ± S.E., P388: 13.8 µg/mL
[8]
  LC50 ± S.E., PBL: 24 ± 10 µg/mL

## KKWWRRALQGLKTAGPAIQSVLNK [MBI 21A2]
S. aureus; S. aureus SA25
  Ciprofloxacin MIC + Peptide: 1 µg/mL
  Peptide MIC + Ciprofloxacin: 1 µg/mL
S. aureus; S. aureus SA25, Ciprofloxacin section
  Peptide MIC Alone: 16 µg/mL
S. aureus; antibiotic agents combined with peptide
  acquired resistance of S. aureus to piperacillin and ciprofloxacin: overcome
S. aureus; peptide + Ciprofloxacin, S. aureus SA25
  FIC: 0.56

## KWKSFIKKLTSAAKKVVTTAKPLISS [MBI 26]
A bacterial strain
  killing by combination compared with peptide or antibiotic agent alone: greater killing than either peptide or antibiotic agent alone
Tolerant organisms
  tolerance (MBC:MIC) to Vancomycin: overcomes the tolerance
